Experimental findings from ChEMBL document CHEMBL5390298, “Nanomolar Benzothiazole-Based Inhibitors of 17β-HSD10 with Cellular Bioactivity” (ACS Med Chem Lett, 2023) are described below.

Structures are written as SMILES.

In data set [1] the test system is HEK293. The data set is described as follows: Cytotoxicity against HEK293 cells assessed as cell damage at 50 uM incubated for 48 hrs by fluorometric method. The format is toxicity, cell-based. The note with it: human, hek293, 48 h.
Data set [2] deals with T1, 3-hydroxyacyl-CoA dehydrogenase type-2 (Homo sapiens, UniProt Q99714).
T1 sequence (Q99714 whole entry): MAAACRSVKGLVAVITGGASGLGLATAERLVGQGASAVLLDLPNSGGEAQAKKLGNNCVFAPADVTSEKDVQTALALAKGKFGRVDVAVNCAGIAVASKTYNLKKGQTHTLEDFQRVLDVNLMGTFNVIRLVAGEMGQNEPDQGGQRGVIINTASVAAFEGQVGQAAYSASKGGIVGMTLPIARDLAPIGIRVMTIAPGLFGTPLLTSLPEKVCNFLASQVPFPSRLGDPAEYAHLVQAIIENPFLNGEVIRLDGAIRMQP
The experiment in a line: Inhibition of recombinant 17beta-HSD10 (unknown origin) using ALLOP as substrate and NAD+ as cofactor preincubated for 5 mins followed by substrate addition and measured after 20 mins by fluorometric assay.

The target of data set [3] is T1, 3-hydroxyacyl-CoA dehydrogenase type-2. The experiment in a line: Mixed type inhibition of recombinant 17beta-HSD10 (unknown origin) using E2 as substrate and NAD+ as cofactor preincubated for 5 mins followed by substrate addition and measured after 20 mins by fluorometric assay.
Data set [4] shares this target. The experiment in a line: Inhibition of recombinant 17beta-HSD10 (unknown origin) using E2 as substrate and NAD+ as cofactor preincubated for 5 mins followed by substrate addition and measured after 20 mins by fluorometric assay.

On to `CC(=O)Nc1ccc2nc(NCCc3ccc(O)c(Cl)c3)sc2c1`, for which the Activity entry in data set [1] is “Non-Toxic”.

On to `O=C(Nc1ccc(O)c(Cl)c1)Nc1nc2ccc(-c3nnn[nH]3)cc2s1`, for which the figures for the IC50 in data set [2] and in data set [3] were 95 nM and 410 nM, respectively. In data set [1], the Activity entry is recorded as “Non-Toxic”.

As for `O=C(Nc1ccc(O)c(C(F)(F)F)c1)Nc1nc2ccc(C(=O)O)cc2s1`, the IC50 in data set [2] was 250 nM; in data set [3], 340 nM. Besides, the Activity entry in data set [1] is “Non-Toxic”.

In the case of `CC(=O)Nc1ccc2nc(NC(=O)Nc3ccc(O)c(C(F)(F)F)c3)sc2c1`, the Activity entry in data set [1] was “Non-Toxic”.

For `O=C(Nc1ccc(O)c(Cl)c1)Nc1nc2cc(C(=O)O)ccc2s1`, in data set [1], the Activity entry is “Non-Toxic”.

In the case of `CC(=O)Nc1ccc2nc(NCc3ccc(O)c(C(F)(F)F)c3)sc2c1`, the Activity entry in data set [1] is “Non-Toxic”.

Regarding `CS(=O)(=O)Nc1ccc2nc(NC(=O)Nc3ccc(O)c(Cl)c3)sc2c1`, the Activity entry in data set [1] was “Non-Toxic”.

Take `NS(=O)(=O)c1ccc2nc(NC(=O)Nc3ccc(O)c(Cl)c3)sc2c1`: the Activity entry in data set [1] is listed as “Non-Toxic”.

As for `NC(=O)Nc1ccc2nc(NC(=O)Nc3ccc(O)c(Cl)c3)sc2c1`, the IC50 was 330 nM in data set [2] and 270 nM in data set [3]. In addition, the Activity entry in data set [1] is listed as “Non-Toxic”.

As to `CC(=O)Nc1ccc2nc(NC(=O)Nc3ccc(O)c(Cl)c3)sc2c1`, the IC50 in data set [4] amounted to 1150 nM.

Take `O=C(O)c1ccc2nc(NC(=O)c3ccc(O)c(Cl)c3)sc2c1`: in data set [1], the Activity entry was “Non-Toxic”.

Consider `CC(=O)Nc1ccc2nc(NCc3ccc(O)c(Cl)c3)sc2c1`, for which the Activity entry in data set [1] was “Non-Toxic”.

In the case of `CC(=O)Nc1ccc2nc(N(CCc3ccc(O)c(Cl)c3)C(C)=O)sc2c1`, the Activity result in data set [1] is on record as “Non-Toxic”.

`O=C(Nc1ccc(O)c(Cl)c1)Nc1nc2ccc(C(=O)O)cc2s1`: the IC50 in data set [4] is 1810 nM.

Take `O=C(O)c1ccc2nc(NCCc3ccc(O)c(Cl)c3)sc2c1`: the Activity result in data set [1] was “Non-Toxic”.

Take `O=C(O)c1ccc2nc(NCc3ccc(O)c(Cl)c3)sc2c1`: in data set [1], the Activity entry was “Non-Toxic”.

Usually IC50 stands for the concentration needed to halve the response being measured.
